Substitutions are numbered along the chain they refer to. Values joined by “and” are separate entries in the source; they are usually repeats but may differ in a detail not shown here. Equal entries are not always repeated. Where two headings read alike, the source gives them in different places.

Data set [1] concerns the target T1, Kir4.1 T128A (Homo sapiens, UniProt P78508, T128A).
T1 construct: expressed in transfected cells; host or cells: CHO-K1
T1 sequence (P78508 1-379 T128A): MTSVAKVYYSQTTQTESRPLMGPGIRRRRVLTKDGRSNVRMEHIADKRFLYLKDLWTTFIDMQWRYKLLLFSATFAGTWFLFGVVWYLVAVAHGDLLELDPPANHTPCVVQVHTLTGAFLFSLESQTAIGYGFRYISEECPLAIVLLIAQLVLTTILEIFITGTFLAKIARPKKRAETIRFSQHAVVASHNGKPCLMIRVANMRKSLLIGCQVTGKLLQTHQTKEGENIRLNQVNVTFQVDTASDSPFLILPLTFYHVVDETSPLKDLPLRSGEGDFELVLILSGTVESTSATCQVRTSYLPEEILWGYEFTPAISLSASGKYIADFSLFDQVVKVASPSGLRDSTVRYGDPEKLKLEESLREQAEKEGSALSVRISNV
The data set is described as follows: Whole-cell patch clamp, Kir4.1 point mutant T128A. The data set is classed as cell-based. The protocol:
(§1) Plasmids encoding WT human potassium channels Kir1.1, Kir2.1, Kir2.2, Kir4.1, and Kir4.2 were obtained from the Beijing Genomics Institute. All point mutations were constructed using the QuickChange II Site‐Directed Mutagenesis Kit (Stratagene) and subsequently verified by sequencing.
(§2) CHO‐K1 cells were maintained in DMEM/F12 growth medium containing 10% fetal bovine serum. Plasmids encoding the target genes (3600 ng) and enhanced green fluorescent protein (400 ng) were cotransfected into cells using Lipofectamine 2000 (Invitrogen) in accordance with the manufacturer's instructions. Cells were seeded onto poly‐d‐lysine (PDL)‐coated glass coverslips 1 h prior to electrophysiological recordings. All cells were cultured under standard conditions of 5% CO2 at 37 °C.
(§3) Whole‐cell patch‐clamp recordings were obtained either in transiently transfected CHO‐K1 cells or in primary cultured astrocytes at room temperature using standard patch‐clamp techniques with an Axopatch‐700B amplifier (Axon Instruments). The signals were filtered at 2 kHz and sampled at 20 kHz using the Digidata 1440A interface (Axon Instruments). The resistance of borosilicate glass pipettes was typically 2–4 MΩ when filled with the internal solution. Drug application was facilitated using a BPS perfusion system (ALA Scientific Instruments). Macroscopic currents generated by expressed potassium channels were recorded under the voltage‐clamp conditions with an internal pipette solution composed of (in mM): 140 KCl, 5 NaCl, 1 CaCl2, 1 MgCl2, 10 HEPES, and 10 EGTA, pH 7.2 adjusted with KOH. The external solution contained (in mM): 140 NaCl, 5 KCl, 2 CaCl2, 1 MgCl2, 10 glucose, and 10 HEPES, pH 7.4 adjusted with NaOH. Currents were elicited with a hyperpolarized voltage at −120 mV from the holding potential of −80 mV, followed by a ramp voltage depolarizing to +50 mV. Astrocytic resting membrane potentials were recorded under current‐clamp conditions (I = 0 pA) using standard internal and external solutions, determined immediately after achieving whole‐cell mode.
A general note: In patch-clamp work, channel activity is measured electrically.

In data set [2] the target is T2, Kir4.1 E158N (Homo sapiens, UniProt P78508, E158N).
T2 construct: expressed in transfected cells; host or cells: CHO-K1
T2 sequence (P78508 1-379 E158N): T1 sequence (P78508 1-379 T128A) with A128T, E158N
The data set is described as follows: Whole-cell patch clamp, Kir4.1 point mutant E158N. The data set is classed as cell-based. The protocol: as §1, §2, §3

The target of data set [3] is T3, Kir4.1 I159A (Homo sapiens, UniProt P78508, I159A).
T3 construct: expressed in transfected cells; host or cells: CHO-K1
T3 sequence (P78508 1-379 I159A): T1 sequence (P78508 1-379 T128A) with A128T, I159A
The data set is described as follows: Whole-cell patch clamp, Kir4.1 point mutant I159A. The data set is classed as cell-based. The protocol:
as §1, §2, §3

Data set [4] concerns the target KCNQ2 (Homo sapiens, UniProt O43526). The data set is described as follows: KCNQ2 channel inhibition. The data set is classed as cell-based. Further details: KCNQ2 inhibition, single recordings: unit not given here.
Text: as §3

For data set [5], the system named is C57BL/6J mice. The data set is described as follows: Novelty-suppressed feeding test (NSFT). The class given is in vivo. The protocol: The mice were individually housed in new cages and deprived of food for 24 h. The testing equipment was a brightly lit plastic box measuring 40 × 40 × 30 cm^3 with a light intensity of 1100–1200 lux. Each mouse was positioned in a corner of the device with one food pellet located at the center. The latency to start chewing food was recorded within 5 min. Immediately thereafter, the mice were placed back in their home cage with pre‐measured food, and the amount consumed in the next 5 min was used as a baseline to account for appetite changes that might affect the outcome.

Regarding `c1ccc2c(c1)oc1ccc(Nc3ccnc(NCCCN4CCOCC4)n3)cc12` [JX3212, N^4-(dibenzo[b,d]furan-2-yl)-N^2-(3-morpholinopropyl)pyrimidine-2,4-diamine], the inhibition at 3 µM in data set [1] (3 µM, mean ± SEM, read-out: current inhibition, Kir4.1 T128A) was found to be 33.9 ± 4.58%; in data set [1] (JX3212 3 µM (Fig 2D), read-out: Mutation: T128A inhibition, single recordings) it was 31.1%; in data set [2] (3 µM, mean ± SEM, read-out: current inhibition, Kir4.1 E158N), 29.4 ± 2.66%; in data set [2] (JX3212 3 µM (Fig 2D), read-out: Mutation: E158N inhibition, single recordings), 27.7%; in data set [3] (3 µM, mean ± SEM, read-out: current inhibition, Kir4.1 I159A) it was 43.9 ± 6.15%; in data set [3] (JX3212 3 µM (Fig 2D), read-out: Mutation: I159A inhibition, single recordings), 42.9%. In data set [1] (JX3212 3 µM (Fig 2D)), the “Mutation: T128A inhibition, single recordings” value is 37.4256 and 28.9608 and 38.1757. Moreover, the “Mutation: E158N inhibition, single recordings” value in data set [2] (JX3212 3 µM (Fig 2D)) is 26.6694 and 31.4659 and 31.9554. Besides, the “Mutation: I159A inhibition, single recordings” value in data set [3] (JX3212 3 µM (Fig 2D)) is 52.8569 and 40.7357 and 46.4245 and 36.569. The molecule also displayed an IC50 in data set [4] of 5.99 µM. For the same molecule, the “KCNQ2 inhibition, single recordings” value in data set [4] (concentration 3) was 22.0588 and 21.8921 and 13.4681; in data set [4] (concentration 10), 79.5346 and 67.5255 and 78.5615; in data set [4] (concentration 30 (unit not given)), 97.6879 and 84.1578 and 95.4545. Moreover, in data set [5] (acute administration, doses 1, 3, 10 mg kg−1), the “effective threshold dose in NSFT” value is 10 mg/kg. Further, the “food intake in home cage after NSFT (in words)” value in data set [5] (repeated administration, vs vehicle) is “remained comparable to that in the vehicle group”. Moreover, the “Food intake in home cage, single mice” value in data set [5] (repeated doses, 3 mg/kg (Fig 3F), 3 mg/kg) is 0.14 and 0.11 and 0.12 and 0.1 and 0.09. Further, in data set [5] (seven days, imipramine 15 mg kg−1, JX3212 3/10 mg kg−1), the “NSFT antidepressant-like response after repeated administration (in words)” value is “elicited significant antidepressant‐like responses”. In data set [5] (single dose 10 mg kg−1 i.p., 1 h after administration), the “NSFT latency to feed (in words)” value is reported as “significantly reduced the latency to feed”.

Usually inhibition stands for the relative decrease from the control value, in per cent. One may read the IC50 as the concentration that gives 50% inhibition.

The record behind these values is publication PMC12903969, “Discovery of a Novel and Potent Kir4.1 Inhibitor as a Safe and Rapid‐Onset Antidepressant Agent in Mice” (Advanced Science, 2025).
